Among the data in patent publication US9382254B2, “Compounds and pharmaceutical compositions thereof for the treatment of cystic fibrosis” (Galapagos NV, priority 2013, dated 2016) are EC50 values, retold here.

The target of the assay is T1, CFTR ΔF508 mutant (Homo sapiens, UniProt P13569, DEL508-508).
T1 construct: expressed in transfected cells; host or cells: CFBE41o- (adenoviral transduction)
The assay can be described thus: YFP-halide influx assay for the CFTR-ΔF508 mutation, gluconate buffer. The format is cell-based. To be noted: CFBE41o- cells, forskolin 10.67 μM. The source says: The YFP halide influx assay measures the functionality of the cystic fibrosis Transmembrane Conductance regulator (CFTR) channels in the cystic fibrosis bronchial epithelium cell line CFBE41o-. The assay is used to evaluate the capacity of compounds to increase the open probability of existing CFTR channels in the membrane. It makes use of the observation that the yellow fluorescent protein (YFP) variant YFP H148Q, I152L has its fluorescence substantially quenched by halide ions like Cl^− and I^−. (Galietta, Haggie, & Verkman, 2001) (Nagai, et al., 2002)
For this purpose, CFBE41o-cells are seeded in 96 well plates (6000 CFBE cells/well). One day after seeding, the CFBE cells are transduced with adenoviral vectors that direct the expression of the CFTR ΔF508 mutant and of the YFP reporter. Cells are incubated at 27° C., 5% CO2 for 24 hours so as to allow for the proper folding and migration to the membrane of the CFTR channel or treated with a CFTR modulator during 24 hours at 37° C.
The I^−-induced quenching of fluorescence is recorded immediately after injection of I^− for 7 seconds. The capacity of a compound to increase the channel opening is directly correlated with the decrease in fluorescence, and is expressed as (1-(fluorescence after 7 seconds (F)/fluorescence before injection (F0))) and an EC50 can be derived from a (1-F/F0) vs compound concentration plot.

By EC50 is commonly meant the concentration needed to bring the measured effect to its halfway point. Low values mean greater potency, high ones weaker potency.

T1 sequence (P13569 with tags, fused parts or gaps DEL508-508): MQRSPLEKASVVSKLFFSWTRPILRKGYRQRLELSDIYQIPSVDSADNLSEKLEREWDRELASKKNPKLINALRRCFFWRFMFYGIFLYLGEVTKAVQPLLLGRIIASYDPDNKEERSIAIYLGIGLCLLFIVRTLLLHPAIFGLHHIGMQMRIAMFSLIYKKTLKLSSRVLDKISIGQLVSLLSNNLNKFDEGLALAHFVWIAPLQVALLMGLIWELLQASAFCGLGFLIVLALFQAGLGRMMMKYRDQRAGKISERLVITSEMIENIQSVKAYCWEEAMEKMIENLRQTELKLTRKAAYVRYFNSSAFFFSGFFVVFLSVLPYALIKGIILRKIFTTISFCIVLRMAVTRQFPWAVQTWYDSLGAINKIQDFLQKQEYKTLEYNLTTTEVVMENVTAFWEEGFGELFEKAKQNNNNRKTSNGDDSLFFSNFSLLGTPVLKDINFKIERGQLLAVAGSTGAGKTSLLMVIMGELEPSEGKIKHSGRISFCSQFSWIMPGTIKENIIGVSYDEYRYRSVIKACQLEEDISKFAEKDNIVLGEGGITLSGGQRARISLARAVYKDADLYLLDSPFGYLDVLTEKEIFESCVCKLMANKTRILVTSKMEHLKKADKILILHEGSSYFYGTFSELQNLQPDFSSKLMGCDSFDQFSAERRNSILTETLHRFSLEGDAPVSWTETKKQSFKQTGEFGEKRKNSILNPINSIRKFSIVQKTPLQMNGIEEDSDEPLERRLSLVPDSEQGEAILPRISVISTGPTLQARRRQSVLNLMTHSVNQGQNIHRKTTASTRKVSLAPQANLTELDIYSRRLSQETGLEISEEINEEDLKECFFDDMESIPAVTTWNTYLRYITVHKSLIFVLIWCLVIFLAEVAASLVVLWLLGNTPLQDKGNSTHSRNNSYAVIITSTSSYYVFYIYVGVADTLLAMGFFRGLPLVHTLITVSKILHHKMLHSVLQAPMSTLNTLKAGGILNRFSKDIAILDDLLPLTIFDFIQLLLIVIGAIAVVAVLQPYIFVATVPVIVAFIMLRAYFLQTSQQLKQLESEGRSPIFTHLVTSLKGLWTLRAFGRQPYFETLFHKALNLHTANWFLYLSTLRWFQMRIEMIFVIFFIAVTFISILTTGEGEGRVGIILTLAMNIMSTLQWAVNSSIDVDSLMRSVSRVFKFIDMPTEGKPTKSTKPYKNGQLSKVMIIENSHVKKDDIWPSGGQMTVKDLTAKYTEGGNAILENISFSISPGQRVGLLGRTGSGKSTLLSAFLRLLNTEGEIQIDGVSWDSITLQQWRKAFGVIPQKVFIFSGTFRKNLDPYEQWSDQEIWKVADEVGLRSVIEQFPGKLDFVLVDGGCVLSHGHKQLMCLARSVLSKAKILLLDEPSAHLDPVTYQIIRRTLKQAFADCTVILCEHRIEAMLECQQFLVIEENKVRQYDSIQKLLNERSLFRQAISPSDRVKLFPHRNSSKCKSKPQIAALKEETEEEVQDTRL

Turning to `Cc1ccc(C(=O)Nc2sc(S(=O)(=O)N3CCCCC3)cc2C(N)=O)s1` [Compound 1, N-(3-carbamoyl-5-(piperidin-1-ylsulfonyl)thiophen-2-yl)-5-methylthiophene-2-carboxamidc], a half-maximal response (EC50) required 135 nM.

For the compound `NC(=O)c1cc(S(=O)(=O)N2CCCCC2)sc1NC(=O)c1cc2c(F)cccc2s1` [Compound 2, N-(3-carbamoyl-5-(piperidin-1-ylsulfonyl)thiophen-2-yl)-4-fluorobenzo[b] thiophene-2-carboxamide], the response was half-maximal at 483 nM (EC50).

The compound `Cc1ccc(C(=O)Nc2sc(S(=O)(=O)N3CCN(C)CC3)cc2C(N)=O)s1` [Compound 5, N-(3-carbamoyl-5-(4-methylpiperazin-1-ylsulfonyl)thiophen-2-yl)-5-methylthiophene-2-carboxamide] yielded an EC50 of 944 nM.

For `Cc1ccc(C(=O)Nc2sc(S(=O)(=O)N(C)Cc3ccccc3)cc2C(N)=O)s1` [Compound 6, N-(5-(N-benzyl-N-methylsulfamoyl)-3-carbamoylthiophen-2-yl)-5-methylthiophene-2-carboxamide], the 50% effective concentration (EC50) amounted to 321 nM. This EC50 lies about 2.9-fold lower than the previous one. For `Cc1ccc(C(=O)Nc2sc(S(=O)(=O)N(C)c3ccccc3)cc2C(N)=O)s1` [Compound 7, N-(3-carbamoyl-5-(N-methyl-N-phenylsulfamoyl)thiophen-2-yl)-5-methylthiophen-2-carboxamide], it took 1080 nM to reach a half-maximal effect (EC50). Compared with the last compound, the EC50 is about 3.4-fold higher. Compound `Cc1ccc(C(=O)Nc2sc(S(=O)(=O)N3Cc4ccccc4C3)cc2C(N)=O)s1` [Compound 8, N-(3-carbamoyl-5-(isoindolin-2-ylsulfonyl)thiophen-2-yl)-5-methylthiphen-2-carboxamide] gave an EC50 of 646 nM. For `NC(=O)c1cc(S(=O)(=O)N2CCCCC2)sc1NC(=O)c1cc2c(s1)CCCC2` [Compound 9, N-(3-carbamoyl-5-(piperidin-1-ylsulfonyl)thiophen-2-yl)-4,5,6,7-tetrahydrobenzo[b] thiophene-2-carboxamide], the EC50 is 603 nM. This EC50 and that of the compound before are within 1.5-fold of each other. As to `NC(=O)c1cc(S(=O)(=O)N2CCCCC2)sc1NC(=O)c1cc2ccccc2s1` [Compound 10, N-(3-carbamoyl-5-(piperidin-1-ylsulfonyl)thiophen-2-yl)benzo[b] thiophene-2-carboxamide], the midpoint of the response, the EC50, lay at 628 nM. In turn, `N#Cc1cccc(C(=O)Nc2sc(S(=O)(=O)N3CCCCC3)cc2C(N)=O)c1` [Compound 11, 2-(3-cyanobenzamido)-5-(piperidin-1-ylsulfonyl) thiophene-3-carboxamide] displayed an EC50 of 568 nM.

Take `NC(=O)c1cc(S(=O)(=O)N2CCCCC2)sc1NC(=O)c1ccc2ncsc2c1` [Compound 12, N-(3-carbamoyl-5-(piperidin-1-ylsulfonyl)thiophen-2-yl)benzo[d] thiazole-6-carboxamide]: the EC50 is 887 nM. In turn, `NC(=O)c1cc(S(=O)(=O)N2CCCCC2)sc1NC(=O)C1CCCC1` [Compound 13, 2-(cyclopentanecarboxamido)-5-(piperidin-1-ylsulfonyl)thiophene-3-carboxamide] returned an EC50 of 401 nM.

Take `NC(=O)c1cc(S(=O)(=O)N2CCCCC2)sc1NC(=O)c1cccc(F)c1` [Compound 14, 2-(3-fluorobenzamido)-5-(piperidin-1-ylsulfonyl)thiophene-3-carboxamide]: the EC50 was found to be 357 nM. With `Cc1ccc(C(=O)Nc2sc(S(=O)(=O)N(C)C)cc2C(N)=O)s1` [Compound 15, N-(3-carbamoyl-5-(N,N-dimethylsulfamoyl)thiophen-2-yl)-5-methylthiophene-2-carboxamide], the response was half-maximal at 169 nM (EC50).

In turn, `NC(=O)c1cc(S(=O)(=O)N2CCCCC2)sc1NC(=O)c1ccccc1Cl` [Compound 17, 2-(2-chlorobenzamido)-5-(piperidin-1-ylsulfonyl)thiophene-3-carboxamide] yielded an EC50 of 265 nM. In turn, `COc1cccc(C(=O)Nc2sc(S(=O)(=O)N3CCCCC3)cc2C(N)=O)c1` [Compound 18, 2-(3-methoxybenzamido)-5-(piperidin-1-ylsulfonyl)thiophene-3-carboxamide] came in with an EC50 of 472 nM. Against the preceding compound, the EC50 is about 1.8-fold higher. `NC(=O)c1cc(S(=O)(=O)N2CCCCC2)sc1NC(=O)c1ccccc1F` [Compound 19, 2-(2-fluorobenzamido)-5-(piperidin-1-ylsulfonyl)thiophene-3-carboxamide] registered an EC50 of 118 nM. `NC(=O)c1cc(S(=O)(=O)N2CCCCC2)sc1NC(=O)c1ccc(Cl)cc1` [Compound 20, 2-(4-chlorobenzamido)-5-(piperidin-1-ylsulfonyl)thiophene-3-carboxamide]: it took 392 nM to reach a half-maximal effect (EC50).

Compound `COc1ccc(C(=O)Nc2sc(S(=O)(=O)N3CCCCC3)cc2C(N)=O)cc1` [Compound 21, 2-(4-methoxybenzamido)-5-(piperidin-1-ylsulfonyl)thiophene-3-carboxamide] had an EC50 of 484 nM.

On to `N#Cc1ccc(C(=O)Nc2sc(S(=O)(=O)N3CCCCC3)cc2C(N)=O)cc1` [Compound 22, 2-(4-cyanobenzamido)-5-(piperidin-1-ylsulfonyl)thiophene-3-carboxamide], for which the response was half-maximal at 317 nM (EC50). This EC50 is about 1.5-fold lower than that of the compound before. On to `CC(C)(C)c1ccc(C(=O)Nc2sc(S(=O)(=O)N3CCCCC3)cc2C(N)=O)s1` [Compound 23, 5-tert-butyl-N-(3-carbamoyl-5-(piperidin-1-ylsulfonyl)thiophen-2-yl) thiophene-2-carboxamide], for which the concentration giving a half-maximal response (EC50) was determined as 642 nM. For the compound `COc1ccccc1C(=O)Nc1sc(S(=O)(=O)N2CCCCC2)cc1C(N)=O` [Compound 24, 2-(2-methoxybenzamido)-5-(piperidin-1-ylsulfonyl)thiophene-3-carboxamide], the EC50 came to 772 nM. The EC50 values of the last two compounds are within 1.5-fold of each other. The compound `N#Cc1ccccc1C(=O)Nc1sc(S(=O)(=O)N2CCCCC2)cc1C(N)=O` [Compound 25, 2-(2-cyanobenzamido)-5-(piperidin-1-ylsulfonyl)thiophene-3-carboxamide] displayed an EC50 of 945 nM. Compound `NC(=O)c1cc(S(=O)(=O)N2CCCCC2)sc1NC(=O)c1ccc(F)cc1` [Compound 26, 2-(4-fluorobenzamido)-5-(piperidin-1-ylsulfonyl)thiophene-3-carboxamide] yielded an EC50 of 289 nM. For `CC(C)(C)c1ccc(C(=O)Nc2sc(S(=O)(=O)N3CCCCC3)cc2C(N)=O)cc1` [Compound 27, 2-(4-tert-butylbenzamido)-5-(piperidin-1-ylsulfonyl)thiophene-3-carboxamide], the EC50 is 290 nM.

Regarding `CCCC(=O)Nc1sc(S(=O)(=O)N2CCCCC2)cc1C(N)=O` [Compound 28, 2-butyramido-5-(piperidin-1-ylsulfonyl)thiophene-3-carboxamide], the EC50 was 624 nM. The result for `CC(C)(C)C(=O)Nc1sc(S(=O)(=O)N2CCCCC2)cc1C(N)=O` [Compound 29, 5-(piperidin-1-ylsulfonyl)-2-pivalamidothiophene-3-carboxamide] reads 272 nM; that for `Cn1ccc(C(=O)Nc2sc(S(=O)(=O)N3CCCCC3)cc2C(N)=O)n1` [Compound 30, N-(3-carbamoyl-5-(piperidin-1-ylsulfonyl)thiophen-2-yl)-1-methyl-1H-pyrazole-3-carboxamide], 910 nM; that for `CC1(C(=O)Nc2sc(S(=O)(=O)N3CCCCC3)cc2C(N)=O)CC1` [Compound 31, 2-(1-methylcyclopropanecarboxamido)-5-(piperidin-1-ylsulfonyl) thiophene-3-carboxamide], 184 nM. For `NC(=O)c1cc(S(=O)(=O)N2CCCCC2)sc1NC(=O)Cc1ccc(F)cc1` [Compound 32, 2-(2-(4-fluorophenyl)acetamido)-5-(piperidin-1-ylsulfonyl)thiophene-3-carboxamide], the EC50 turned out to be 1500 nM.

Compound `Cc1nnc(C(=O)Nc2sc(S(=O)(=O)N3CCCCC3)cc2C(N)=O)o1` [Compound 33, N-(3-carbamoyl-5-(piperidin-1-ylsulfonyl)thiophen-2-yl)-5-methyl-1,3,4-oxadiazole-2-carboxamide] displayed an EC50 of 9840 nM. Against the preceding compound, the EC50 is about 6.6-fold higher.

Consider `NC(=O)c1cc(S(=O)(=O)N2CCCCC2)sc1NC(=O)c1cnccn1` [Compound 34, N-(3-carbamoyl-5-(piperidin-1-ylsulfonyl)thiophen-2-yl)pyrazine-2-carboxamide], for which the EC50 came out at 290 nM. The result for `NC(=O)c1cc(S(=O)(=O)N2CCCCC2)sc1NC(=O)c1c[nH]cn1` [Compound 35, N-(3-carbamoyl-5-(piperidin-1-ylsulfonyl)thiophen-2-yl)-1H-imidazole-4-carboxamide] reads 3280 nM. `NC(=O)c1cc(S(=O)(=O)N2CCCCC2)sc1NC(=O)C1CCC(F)(F)CC1` [Compound 37, 2-(4,4-difluorocyclohexanecarboxamide)-5-(piperidin-1-ylsulfonyl) thiophene-3-carboxamide]: the EC50 came to 293 nM.

The compound `NC(=O)c1cc(S(=O)(=O)N2CCCCC2)sc1NC(=O)C1(C(F)(F)F)CC1` [Compound 38, 5-(piperidin-1-ylsulfonyl)-2-(1-(trifluoromethyl)cyclopropanecarboxamido) thiophene-3-carboxamide] came in with an EC50 of 900 nM. In turn, `NC(=O)c1cc(S(=O)(=O)N2CCCCC2)sc1NC(=O)c1ccc(F)s1` [Compound 39, N-(3-carbamoyl-5-(piperidin-1-ylsulfonyl)thiophen-2-yl)-5-fluorothiophene-2-carboxamide] gave an EC50 of 293 nM. Turning to `NC(=O)c1cc(S(=O)(=O)N2CCCCC2)sc1NC(=O)CCc1ccccc1` [Compound 40, 2-(3-phenylpropanamido)-5-(piperidin-1-ylsulfonyl) thiophene-3-carboxamide], the EC50 amounted to 574 nM.
